Target: LuxG (Photobacterium leiognathi, UniProt P29237)
Test: stopped-flow NADH fluorescence, amplitude titration
Assay type: binding

LuxG, sequence (P29237 whole entry): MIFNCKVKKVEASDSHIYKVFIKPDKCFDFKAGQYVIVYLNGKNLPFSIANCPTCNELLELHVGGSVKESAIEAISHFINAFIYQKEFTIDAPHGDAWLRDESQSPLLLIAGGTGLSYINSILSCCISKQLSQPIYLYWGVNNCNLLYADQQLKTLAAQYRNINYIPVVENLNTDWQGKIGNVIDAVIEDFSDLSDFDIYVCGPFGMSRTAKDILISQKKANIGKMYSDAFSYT

**Q.** For `NC(=O)C1=CN([C@@H]2O[C@H](COP(=O)(O)OP(=O)(O)OC[C@H]3O[C@@H](n4cnc5c(N)ncnc54)[C@H](O)[C@@H]3O)[C@@H](O)[C@H]2O)C=CC1` [NADH], which Kd is on record?
**A.** 25 ± 4 µM
